System: DN rats
Assay: type II diabetic nephropathy (DN) rat model (high-sugar high-fat diet + streptozocin)
Assay type: in vivo, SD (Sprague Dawley) rats
Settings: for BUN / CREA / Glycated hemoglobin / Urinary protein / mALB (microalbumin in urine) / ICAM-1 / IL-1β / IL-6 / MDA / NF-κB / SOD / T-AOC / TGF-β1 / TNF-α / Glucose (GLU) / HDL-C / LDL-C / TC / TG / UA / Kidney coefficient / VCAM-1: gavage, 6 weeks; for Urinary protein / mALB (microalbumin in urine): 6-hour urine; for ICAM-1 / IL-1β / IL-6 / MDA / NF-κB / SOD / T-AOC / TGF-β1 / TNF-α / VCAM-1: renal tissues; for Glucose (GLU) / HDL-C / LDL-C / TC / TG / UA: serum; for Kidney coefficient: weights of two kidneys/body weight
Experimental: The solid dispersions are prepared through a solvent method, comprising steps of: respectively precisely weighing LM49, PVPK30 and tween80 with a weight ratio of 1:5:1, and A8, PVPK30 and tween80 with a weight ratio of 1:4:1; dissolving with appropriate absolute ethyl alcohol, continuously stirring, and uniformly mixing; placing on the water bath at 60° C., evaporating and removing the absolute ethyl alcohol, and obtaining a viscous material; placing in the freezer at −20° C., and freezing for 2 hours; taking out from the freezer, then placing in the vacuum drying oven, and drying for 24 hours; after becoming embrittlement, smashing and sieving with a sieve of 80 meshes, and then placing in the dryer for storage.
The healthy adult male SD rats (having a weight of 180-220 g) are fed with the high-sugar and high-fat diet for 4 weeks; the rats are fasting overnight; and streptozocin (STZ) of 40 mg/kg is intraperitoneally injected into the rats. The rats of normal control group are injected with the sodium citrate buffer of same volume; 72 hours later, the rats are fasting for 12 hours. […] During the administration period, the successfully established model rats are still fed with the high-sugar and high-fat diet, while the rats of the normal control group are fed with the normal diet.
After administration for 6 weeks, 6-hour urine of the rats is collected with the metabolism cage.
The rats are fasting overnight and anesthetized intraperitoneally, then the abdominal aorta blood thereof is drawn for measuring the related indexes. The two kidneys of each rat are washed with the normal saline; weights of the kidneys are recorded; and the kidney coefficient (weights of two kidneys/body weight) is calculated. The renal tissues (comprising the glomerulus and renal tubules) at the same part of the left kidney are cut lengthwise and immersed in the 10% neutral formalin for pathomorphology analysis, and the other parts of the left kidney are used for biochemical index measurement; the right kidney is used for mechanism research and stored in the freezer at −80° C.
After successfully establishing the model rats, expect the normal control group (ten rats), the remaining rats are randomly divided into eight groups, wherein each group has twelve rats. The eight groups are respectively the model group, the LM49 solid dispersion low-dose group (with the drug concentration of 3 mg/kg), the LM49 solid dispersion medium-dose group (with the drug concentration of 9 mg/kg), the LM49 solid dispersion high-dose group (with the drug concentration of 27 mg/kg), the A8 solid dispersion low-dose group (with the drug concentration of 3 mg/kg), the A8 solid dispersion medium-dose group (with the drug concentration of 9 mg/kg), the A8 solid dispersion high-dose group (with the drug concentration of 27 mg/kg), and the captopril control group (with the drug concentration of 15 mg/kg).
Administration Way: By Gavage.
The rats of the normal control group and the model group are administrated with the normal saline of 1.0 ml/100 g; the rats of the positive control group, the LM49 solid dispersion high-dose, medium-dose and low-dose groups and the A8 solid dispersion high-dose, medium-dose and low-dose groups are respectively administrated with the drugs of different concentrations, and the administration volume is 1.0 ml/100 g.
The solid dispersions are dissolved by the normal saline; and the rats of the positive control group are administrated with the 0.5% CMC-Na (sodium carboxymethyl cellulose) suspension.
The rats are administrated seven days a week, for totally six weeks.
The IBM SPSS Statistics 20 software is used for data processing, and the data is represented in x±s. The one-way analysis of variance (ANOVA) is adopted for comparison among the groups. According to the homogeneity test results of variance, if the variance is equal, the LSD (least significant difference) test is adopted; if the variance is unequal, the Dunnett's T3 test is adopted. […]

O=C(c1cc(OC(=O)N2CCOCC2)c(OC(=O)N2CCOCC2)cc1Cl)c1cc(Cl)ccc1OC(=O)N1CCOCC1 [A8, 4,5,2′-tris(4-morpholinemethanoyl)-2,5′-dichlorobenzophenone]
BUN (DN rats, high-dose 27 mg/kg): 10.05 ± 1.61 mmol/L | CREA (DN rats, high-dose 27 mg/kg): 52.06 ± 1.66 µmol/L | Glycated hemoglobin (DN rats, high-dose 27 mg/kg): 6.44 ± 0.53^□□● % | Urinary protein (DN rats, high-dose 27 mg/kg): 1.42 ± 0.71^□□●●▴ mg/6 h | mALB (microalbumin in urine) (DN rats, high-dose 27 mg/kg): 39.00 ± 7.58^□□●●▴▴ μg/6 h | ICAM-1 (DN rats, high-dose 27 mg/kg): 322.5 ± 85.70 pg/mgprog | IL-1β (DN rats, high-dose 27 mg/kg): 133.45 ± 24.68 pg/mgprog | IL-6 (DN rats, high-dose 27 mg/kg): 71.29 ± 14.14^□□● pg/mgprog | MDA (DN rats, high-dose 27 mg/kg): 1.42 ± 0.25 nmol/mgprog | NF-κB (DN rats, high-dose 27 mg/kg): 298.32 ± 58.92^□□▴▴◯◯ pg/mgprog | SOD (DN rats, high-dose 27 mg/kg): 4.37 ± 1.25 U/mgprog | T-AOC (DN rats, high-dose 27 mg/kg): 1.32 ± 0.17 U/mgprog | TGF-β1 (DN rats, high-dose 27 mg/kg): 21.36 ± 4.64^□□●●▴▴ pg/mgprot | TNF-α (DN rats, high-dose 27 mg/kg): 304.51 ± 73.47^□ pg/mgprog | Glucose (GLU) (DN rats, high-dose 27 mg/kg): 9.75 ± 2.11^□□●●▴◯ mmol/L | HDL-C (DN rats, high-dose 27 mg/kg): 1.20 ± 0.27 mmol/L | LDL-C (DN rats, high-dose 27 mg/kg): 1.01 ± 0.20^□□●▴ mmol/L | TC (DN rats, high-dose 27 mg/kg): 1.42 ± 0.19^□□●●▴◯ mmol/L | TG (DN rats, high-dose 27 mg/kg): 0.30 ± 0.08^□□ mmol/L | UA (DN rats, high-dose 27 mg/kg): 26.44 ± 5.85^□□●● μmol/L | Kidney coefficient (DN rats, high-dose 27 mg/kg): 0.86 ± 0.05^□ % | lesions of the renal tissues (DN rats, kidney pathology (HE, Masson staining)): effectively reduce the lesions of the renal tissues | BUN (DN rats, low-dose 3 mg/kg): 10.56 ± 1.74 mmol/L | CREA (DN rats, low-dose 3 mg/kg): 54.16 ± 2.95 µmol/L | Glycated hemoglobin (DN rats, low-dose 3 mg/kg): 8.64 ± 0.45% | Urinary protein (DN rats, low-dose 3 mg/kg): 3.64 ± 0.65^□□ mg/6 h | mALB (microalbumin in urine) (DN rats, low-dose 3 mg/kg): 88.91 ± 10.33^□□ μg/6 h | ICAM-1 (DN rats, low-dose 3 mg/kg): 339.84 ± 92.15 pg/mgprog | IL-1β (DN rats, low-dose 3 mg/kg): 178.45 ± 31.59 pg/mgprog | IL-6 (DN rats, low-dose 3 mg/kg): 139.85 ± 55.41^□ pg/mgprog | MDA (DN rats, low-dose 3 mg/kg): 1.52 ± 0.38 nmol/mgprog | NF-κB (DN rats, low-dose 3 mg/kg): 1601.45 ± 206.73^□●● ^ pg/mgprog | SOD (DN rats, low-dose 3 mg/kg): 5.57 ± 1.75 U/mgprog | T-AOC (DN rats, low-dose 3 mg/kg): 1.39 ± 0.19 U/mgprog | TGF-β1 (DN rats, low-dose 3 mg/kg): 59.35 ± 7.34^□□ pg/mgprot | TNF-α (DN rats, low-dose 3 mg/kg): 485.60 ± 138.80 pg/mgprog | VCAM-1 (DN rats, low-dose 3 mg/kg): 37.85 ± 9.28 pg/mgprog | Glucose (GLU) (DN rats, low-dose 3 mg/kg): 13.11 ± 3.95^□□ mmol/L | HDL-C (DN rats, low-dose 3 mg/kg): 1.21 ± 0.28 mmol/L | LDL-C (DN rats, low-dose 3 mg/kg): 1.77 ± 0.57^□□ mmol/L | TC (DN rats, low-dose 3 mg/kg): 2.87 ± 0.69^□□ mmol/L | TG (DN rats, low-dose 3 mg/kg): 0.39 ± 0.05^□□ mmol/L | UA (DN rats, low-dose 3 mg/kg): 28.22 ± 7.14^□□●● μmol/L | Kidney coefficient (DN rats, low-dose 3 mg/kg): 1.06 ± 0.05% | BUN (DN rats, medium-dose 9 mg/kg): 10.07 ± 2.85 mmol/L | CREA (DN rats, medium-dose 9 mg/kg): 53.06 ± 3.75 µmol/L | Glycated hemoglobin (DN rats, medium-dose 9 mg/kg): 7.33 ± 0.77^□ % | Urinary protein (DN rats, medium-dose 9 mg/kg): 2.80 ± 1.02^□□●● mg/6 h | mALB (microalbumin in urine) (DN rats, medium-dose 9 mg/kg): 51.76 ± 9.44^□□●▴ μg/6 h | ICAM-1 (DN rats, medium-dose 9 mg/kg): 321.63 ± 82.35 pg/mgprog | IL-1β (DN rats, medium-dose 9 mg/kg): 155.22 ± 19.45 pg/mgprog | IL-6 (DN rats, medium-dose 9 mg/kg): 111.69 ± 35.86^□ pg/mgprog | MDA (DN rats, medium-dose 9 mg/kg): 1.48 ± 0.16 nmol/mgprog | NF-κB (DN rats, medium-dose 9 mg/kg): 786.93 ± 79.73^□□▴▴● pg/mgprog | SOD (DN rats, medium-dose 9 mg/kg): 5.12 ± 1.41 U/mgprog | T-AOC (DN rats, medium-dose 9 mg/kg): 1.37 ± 0.31 U/mgprog | TGF-β1 (DN rats, medium-dose 9 mg/kg): 27.91 ± 5.90^□□▴▴ pg/mgprot | TNF-α (DN rats, medium-dose 9 mg/kg): 321.27 ± 86.34^□ pg/mgprog | VCAM-1 (DN rats, medium-dose 9 mg/kg): 31.09 ± 5.42 pg/mgprog | Glucose (GLU) (DN rats, medium-dose 9 mg/kg): 11.86 ± 2.96^□□▴ mmol/L | HDL-C (DN rats, medium-dose 9 mg/kg): 1.23 ± 0.40 mmol/L | LDL-C (DN rats, medium-dose 9 mg/kg): 1.41 ± 0.33^□□ mmol/L | TC (DN rats, medium-dose 9 mg/kg): 2.33 ± 0.58^□□ mmol/L | TG (DN rats, medium-dose 9 mg/kg): 0.30 ± 0.07^□□ mmol/L | UA (DN rats, medium-dose 9 mg/kg): 27.18 ± 5.37^□□●● μmol/L | Kidney coefficient (DN rats, medium-dose 9 mg/kg): 1.00 ± 0.11% | effect on resisting the DN of rats (overall summary in words): stronger effect in resisting the DN of rats | activity in resisting the type II diabetic nephropathy, A8 compared with LM49 (rat, in vivo): higher activity in resisting the type II diabetic nephropathy than the compound LM49

Source: patent publication US20190133968A1, “Applications of benzophenones in preparation of drug” (SHANXI MEDICAL UNIVERSITY, priority 2016, published 2019)
